Here are results for 67 compounds from patent publication US20160002247A1, “8-SUBSTITUTED IMIDAZOPYRIMIDINONE DERIVATIVE HAVING AUTOTAXIN INHIBITORY ACTIVITY” (THE UNIVERSITY OF TOKYO, priority 2013, published 2016).

This experiment concerns the target T1, Human autotaxin enzyme (Homo sapiens, UniProt Q13822).
T1 construct: purchased R&D System
Briefly: Evaluation of autotaxin inhibitor, Method B (Test Example 2): TG-mTMP fluorescence. The class given is biochemical. The settings on record: Assay Method B (Test Example 2), human autotaxin; read-out: Inhibitory Activity (autotaxin enzyme inhibitory activity, IC50 class). As to the method: (Method B) Evaluation of Autotaxin Inhibitor
Solution A containing 25 mM Tris-HCl buffer (pH7.5), 100 mM NaCl, 5 mM MgCl2 and 0.1% BSA was prepared. Human autotaxin enzyme (purchased from R&D System) was diluted with Solution A, and 5 μL of which was added to a solution of test compound in DMSO. Furthermore, 5 μl of 0.5 μM TG-mTMP in Solution A was added and allowed to react at room temperature for 2 hours. 5 μl of 150 mM EDTA in Solution A was added to quench the reaction, and the fluorescent dye TokyoGreen, which was produced by the reaction, was detected. The fluorescence was detected using ViewLux (PerkinElmer, Inc.) with an excitation wavelength of 480 nm and a fluorescence wavelength of 540 nm.
In general, IC50 refers to the concentration that inhibits the measured activity by half. Turning to `CCCCCn1c(C)cc(=O)n2c(CO)c(-c3ccc(Cl)cc3)nc12` [Compound 168, 2-(4-chlorophenyl)-3-hydroxymethyl-7-methyl-8-pentylimidazo[1,2-a]pyrimidin-5(8H)-one], the IC50 lay within 100 to 1000 nM. `CCCCCn1c(C)cc(=O)n2c(C)c(-c3ccc(Br)cc3)nc12` [Compound 169]: the IC50 lay within 10 to 100 nM. Turning to `CCCCCn1c(C)cc(=O)n2c(C)c(-c3ccc(Cl)cc3)nc12` [Compound 170], the IC50 is 10 to 100 nM. As to `CCCCCn1c(C)cc(=O)n2c(Br)c(-c3ccc(Cl)cc3)nc12` [Compound 171], the IC50 fell in the range of 10 to 100 nM. In the case of `CCCCCn1c(C)cc(=O)n2c(CN)c(-c3ccc(Cl)cc3)nc12` [Compound 172], the IC50 was greater than 1000 nM. In the case of `CCCCCn1c(C)cc(=O)n2c(CN(C)C)c(-c3ccc(Cl)cc3)nc12` [Compound 173], the IC50 was greater than 1000 nM. `CCCCCn1c(Cl)cc(=O)n2cc(-c3ccc(Cl)cc3)nc12` [Compound 176, 7-chloro-2-(4-chlorophenyl)-8-pentylimidazo[1,2-a]pyrimidin-5(8H)-one]: the IC50 fell in the range of 10 to 100 nM. Next, `CCCCCn1c(NCc2ccc(C(=O)OC)cc2)cc(=O)n2cc(-c3ccc(Cl)cc3)nc12` [Compound 177, methyl 4-((2-(4-chlorophenyl)-5-oxo-8-pentyl-5,8-dihydroimidazo[1,2-a]pyrimidin-7-ylamino)methyl)benzoate]: 10 to 100 nM; `CCCCCn1c(NCc2ccc(C(=O)OC)cc2)c(C)c(=O)n2cc(-c3ccc(Cl)cc3)nc12` [Compound 178, methyl 4-((2-(4-chlorophenyl)-6-methyl-5-oxo-8-pentyl-5,8-dihydroimidazo[1,2-a]pyrimidin-7-ylamino)methyl)benzoate]: less than 10 nM; `CCCCCn1c(C)c(CC(=O)O)c(=O)n2cc(-c3ccc(Cl)cc3)nc12` [Compound 179]: 10 to 100 nM. To `CCCCCn1c(C)c(CCC(=O)O)c(=O)n2cc(-c3ccc(Cl)cc3)nc12` [Compound 180] belongs less than 10 nM. To `CCCCCn1c(C)c(CC(=O)NCC)c(=O)n2cc(-c3ccc(Cl)cc3)nc12` [Compound 181] belongs less than 10 nM. Turning to `CCCCCn1c(C)c(-c2ccccc2)c(=O)n2cc(-c3ccc(Cl)cc3)nc12` [Compound 182], the IC50 was greater than 1000 nM.

As to `CCCCCn1c(C)c(C#CCO)c(=O)n2cc(-c3ccc(Cl)cc3)nc12` [Compound 183], the IC50 lay in the range of 10 to 100 nM.

Consider `CCCCCn1c(C)c(C#N)c(=O)n2cc(-c3ccc(Cl)cc3)nc12` [Compound 184], for which the IC50 is greater than 1000 nM.

For the compound `CCCCCn1c(C)c(C(=O)O)c(=O)n2cc(-c3ccc(Cl)cc3)nc12` [Compound 185], the IC50 is 100 to 1000 nM. Next, `CCCCCn1ccc(=O)n2cc(-c3ccc(Cl)cc3)nc12` [Compound 186]: 10 to 100 nM; `CCCCCn1c(N2CCCC2)cc(=O)n2cc(-c3ccc(Cl)cc3)nc12` [Compound 187]: 10 to 100 nM; `CCCCCn1c(NCCC)cc(=O)n2cc(-c3ccc(Cl)cc3)nc12` [Compound 188]: 10 to 100 nM.

For `CCCCCn1c(OCCC)cc(=O)n2cc(-c3ccc(Cl)cc3)nc12` [Compound 189], the IC50 was in the range of 10 to 100 nM. Consider `CCCCCn1c(N2CCN(CCN3CCOCC3)CC2)cc(=O)n2cc(-c3ccc(Cl)cc3)nc12` [Compound 191], for which the IC50 was less than 10 nM. Take `CCCCCn1c(OC2CCN(C)CC2)cc(=O)n2cc(-c3ccc(Cl)cc3)nc12` [Compound 193]: the IC50 is less than 10 nM. As for `CCCCCn1c(N(C)Cc2ccc(C(=O)OC)cc2)cc(=O)n2cc(-c3ccc(Cl)cc3)nc12` [Compound 195], the IC50 was less than 10 nM. With `CCCCCn1c(N2CCC2)cc(=O)n2cc(-c3ccc(Cl)cc3)nc12` [Compound 196], the IC50 was less than 10 nM. Next, `CCCCCn1c(C)c(NC(C)=O)c(=O)n2cc(-c3ccc(Cl)cc3)nc12` [Compound 199]: 10 to 100 nM; `CCCCCn1c(C)c(CCC(=O)OCC)c(=O)n2cc(-c3ccc(Cl)cc3)nc12` [Compound 200]: less than 10 nM. For the compound `CCCCCOC(=O)CCc1c(C)n(CCCCC)c2nc(-c3ccc(Cl)cc3)cn2c1=O` [Compound 201], the IC50 is less than 10 nM. To `CCCCCn1c(C)c(Cc2ccccc2)c(=O)n2cc(-c3ccc(Cl)cc3)nc12` [Compound 203] belongs 10 to 100 nM.

In the case of `CCCCCn1c(C)c(CCCC)c(=O)n2cc(-c3ccc(Cl)cc3)nc12` [Compound 204], the IC50 is 100 to 1000 nM. Regarding `CCCCCn1c(C)c(CC)c(=O)n2cc(-c3ccc(Cl)cc3)nc12` [Compound 205], the IC50 is 10 to 100 nM. Consider `CCCCCn1c(C)c(F)c(=O)n2cc(-c3ccc(Cl)cc3)nc12` [Compound 206], for which the IC50 was in the range of 10 to 100 nM. `CCCCCn1c(C)c(C)c(=O)n2cc(-c3ccc(Cl)cc3)nc12` [Compound 208]: the IC50 lay in the range of 10 to 100 nM. Take `CCCCCn1c(C)c(NC(C)=O)c(=O)n2cc(-c3cccc(Cl)c3)nc12` [Compound 209]: the IC50 lay within 100 to 1000 nM. To `CCCCCn1c(C)c(CCC(=O)OCC)c(=O)n2cc(-c3cccc(Cl)c3)nc12` [Compound 210] belongs 100 to 1000 nM; to `CCCCCn1c(C)c(Cc2ccccc2)c(=O)n2cc(-c3cccc(Cl)c3)nc12` [Compound 211], greater than 1000 nM.

For `CCCCCn1c(C)c(F)c(=O)n2cc(-c3cccc(Cl)c3)nc12` [Compound 212], the IC50 was greater than 1000 nM.

Regarding `CCCCCn1c(C)c(CCO)c(=O)n2cc(-c3cccc(Cl)c3)nc12` [Compound 213], the half-inhibitory concentration (IC50) lay in the range of 100 to 1000 nM. As to `CCCCCn1c(C)c(CCOCC)c(=O)n2cc(-c3ccc(Cl)cc3)nc12` [Compound 214], the IC50 is less than 10 nM. As to `CCCCCOC(=O)Cc1c(C)n(CCCCC)c2nc(-c3ccc(Cl)cc3)cn2c1=O` [Compound 215], the IC50 was less than 10 nM. Regarding `CCCCCn1c(C)c(CCOCC)c(=O)n2cc(-c3ccc(Cl)cc3)nc12` [Compound 216], the IC50 was greater than 1000 nM. In the case of `CCCCCOC(=O)CCc1c(C)n(CCCCC)c2nc(-c3ccc(Cl)cc3)cn2c1=O` [Compound 217], the IC50 was in the range of 100 to 1000 nM. As to `CCCCCn1c(NCC(=O)O)cc(=O)n2cc(-c3ccc(Cl)cc3)nc12` [Compound 218], the IC50 was in the range of 10 to 100 nM. To `CCCCCn1c(NCCO)cc(=O)n2cc(-c3ccc(Cl)cc3)nc12` [Compound 222] belongs 10 to 100 nM. To `CCCCCn1c(N2CCN(CCc3ccccc3)CC2)cc(=O)n2cc(-c3ccc(Cl)cc3)nc12` [Compound 223] belongs 10 to 100 nM; to `CCCCCn1c(NC2CCCC2)cc(=O)n2cc(-c3ccc(Cl)cc3)nc12` [Compound 224], 10 to 100 nM; to `CCCCCn1c(N2CCC(C(=O)O)CC2)cc(=O)n2cc(-c3ccc(Cl)cc3)nc12` [Compound 225], less than 10 nM.

Regarding `CCCCCn1c(NCc2ccc(OC)cc2)cc(=O)n2cc(-c3ccc(Cl)cc3)nc12` [Compound 226], the IC50 fell in the range of 10 to 100 nM. In the case of `CCCCCn1c(NCCN2CCN(C)CC2)cc(=O)n2cc(-c3ccc(Cl)cc3)nc12` [Compound 227], the IC50 is less than 10 nM. To `CCCCCn1c(NCc2cccn2C)cc(=O)n2cc(-c3ccc(Cl)cc3)nc12` [Compound 228] belongs 10 to 100 nM. Regarding `CCCCCn1c(NCc2ccccn2)cc(=O)n2cc(-c3ccc(Cl)cc3)nc12` [Compound 229], the IC50 fell in the range of 10 to 100 nM. Regarding `CCCCCn1c(N(C)CCC)cc(=O)n2cc(-c3ccc(Cl)cc3)nc12` [Compound 230], the IC50 was less than 10 nM. As to `CCCCCn1c(N(C)C)cc(=O)n2cc(-c3ccc(Cl)cc3)nc12` [Compound 231], the IC50 is less than 10 nM. Next, `CCCCCn1c(N2CCN(C)CC2)cc(=O)n2cc(-c3ccc(Cl)cc3)nc12` [Compound 232]: less than 10 nM. As for `CCCCCn1c(NCc2nccs2)cc(=O)n2cc(-c3ccc(Cl)cc3)nc12` [Compound 233], the half-inhibitory concentration (IC50) was in the range of 10 to 100 nM. `CCCCCn1c(N2CCOCC2)cc(=O)n2cc(-c3ccc(Cl)cc3)nc12` [Compound 234]: the IC50 is less than 10 nM. Consider `CCCCCn1c(NCCN(C)C)cc(=O)n2cc(-c3ccc(Cl)cc3)nc12` [Compound 235], for which the IC50 was 10 to 100 nM. With `CCCCCn1c(NCCNC(C)=O)cc(=O)n2cc(-c3ccc(Cl)cc3)nc12` [Compound 236], the IC50 fell in the range of 10 to 100 nM. Turning to `CCCCCn1c(NCc2ccc(N(C)C)cc2)cc(=O)n2cc(-c3ccc(Cl)cc3)nc12` [Compound 237], the IC50 is 10 to 100 nM.

In the case of `CCCCCn1c(NCCN2CCOCC2)cc(=O)n2cc(-c3ccc(Cl)cc3)nc12` [Compound 238], the IC50 is less than 10 nM. Take `CCCCCn1c(N2C[C@H]3CC[C@@H](C2)O3)cc(=O)n2cc(-c3ccc(Cl)cc3)nc12` [Compound 239]: the IC50 is 10 to 100 nM. On to `CCCCCn1c(N2CCN(CC(=O)N(C)C)CC2)cc(=O)n2cc(-c3ccc(Cl)cc3)nc12` [Compound 240], for which the IC50 is less than 10 nM. Turning to `CCCCCn1c(NCC(=O)N2CCN(C)CC2)cc(=O)n2cc(-c3ccc(Cl)cc3)nc12` [Compound 241], the IC50 is less than 10 nM. For `CCCCCn1c(N2CCN(CCCOC)CC2)cc(=O)n2cc(-c3ccc(Cl)cc3)nc12` [Compound 243], the IC50 was less than 10 nM. As to `CCCCCn1c(N2CCC(N3CCOCC3)CC2)cc(=O)n2cc(-c3ccc(Cl)cc3)nc12` [Compound 244], the IC50 lay within 10 to 100 nM. For the compound `CCCCCn1c(N2CCN(c3cc(F)cc(F)c3)CC2)cc(=O)n2cc(-c3ccc(Cl)cc3)nc12` [Compound 245], the concentration for half-maximal inhibition (IC50) was 10 to 100 nM. To `CCCCCn1c(N2CCCCC2)cc(=O)n2cc(-c3ccc(Cl)cc3)nc12` [Compound 246] belongs 10 to 100 nM; to `CCCCCn1c(N2CCCCCC2)cc(=O)n2cc(-c3ccc(Cl)cc3)nc12` [Compound 247], 10 to 100 nM.
